# US8623196B2 (priority 2007, dated 2014)
# Where “and” joins values, the source holds several entries; their conditions need not be identical. Equal values may be shown once.
# Key:
# [1] = biological target: NEST (recombinant esterase domain of NTE) (Homo sapiens, UniProt Q8IY17); assay type: biochemical
# [2] = system: tyrosinase; assay type: biochemical; settings: for Average sensitivity (control experiments): PLL-Tyr bilayers without an esterase layer
# [3] = system: acetylcholinesterase; assay: Bi-enzyme electrode of tyrosinase and acetylcholinesterase: current response to substrate; assay type: biochemical; settings: for Average sensitivity: tyrosinase/acetylcholinesterase electrode
# [4] = system: Alkaline phosphatase; assay: Bi-enzyme electrode of tyrosinase and alkaline phosphatase: current response to substrate; assay type: biochemical; settings: Table 1-2 lower part
# [5] = biological target: T1, NEST (Homo sapiens, UniProt Q8IY17); assay: NEST biosensor: amperometric response to phenyl valerate; assay type: biochemical; settings: for Average sensitivity: tyrosinase/NEST electrode
# T1 construct: recombinant esterase domain of NTE (NEST) of the present invention comprising amino acid residues 727-1216 of NTE; histidine tag; made in house; host or cells: E. coli BL21(DE3), pET-21b vector
# T1 sequence (Q8IY17 775-1264): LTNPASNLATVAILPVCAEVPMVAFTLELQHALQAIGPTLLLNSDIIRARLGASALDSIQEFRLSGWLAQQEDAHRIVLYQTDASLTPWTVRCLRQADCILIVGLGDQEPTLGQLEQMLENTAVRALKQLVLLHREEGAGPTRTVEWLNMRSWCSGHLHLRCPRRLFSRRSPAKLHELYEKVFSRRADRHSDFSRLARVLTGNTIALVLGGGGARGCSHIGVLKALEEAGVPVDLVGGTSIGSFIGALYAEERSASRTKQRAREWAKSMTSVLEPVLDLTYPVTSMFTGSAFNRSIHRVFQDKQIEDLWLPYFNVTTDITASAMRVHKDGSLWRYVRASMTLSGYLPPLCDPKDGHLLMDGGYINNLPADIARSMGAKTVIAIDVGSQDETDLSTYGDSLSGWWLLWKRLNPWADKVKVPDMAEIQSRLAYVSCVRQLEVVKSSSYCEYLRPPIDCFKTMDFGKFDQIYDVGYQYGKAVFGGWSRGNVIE
# [6] = system: butyrylcholinesterase; assay: Bi-enzyme electrode of tyrosinase and butyrylcholinesterase: current response to substrate; assay type: biochemical
# [7] = system: tyrosinase; assay type: biochemical; settings: NEST biosensor, 0.1 M phosphate buffer pH 7.0, −0.1 V
# [8] = biological target: tyrosinase (Agaricus bisporus, UniProt C7FF04); settings: read-out: apparent Michaelis constant Km^app; cited from earlier work
# Chain of tyrosinase (Agaricus bisporus, UniProt C7FF04) (C7FF04 1-392): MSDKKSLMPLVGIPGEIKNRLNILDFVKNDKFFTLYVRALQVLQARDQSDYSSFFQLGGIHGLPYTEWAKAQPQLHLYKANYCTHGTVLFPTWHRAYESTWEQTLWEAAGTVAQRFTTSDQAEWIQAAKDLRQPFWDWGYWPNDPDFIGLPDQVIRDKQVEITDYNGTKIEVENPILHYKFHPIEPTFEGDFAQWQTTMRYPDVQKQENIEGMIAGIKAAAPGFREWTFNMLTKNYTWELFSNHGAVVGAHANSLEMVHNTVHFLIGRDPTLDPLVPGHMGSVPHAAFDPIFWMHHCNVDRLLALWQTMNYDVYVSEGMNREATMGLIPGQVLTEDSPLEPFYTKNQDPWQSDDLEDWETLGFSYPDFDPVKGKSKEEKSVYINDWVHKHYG
structure (smiles),measurement,setting,value
"O=S(=O)(F)Cc1ccccc1 [PMSF, phenylmethylsulfonyl fluoride]",drop in current after addition of NEST inhibitor (dose dependence),[1],dose-dependent response
"CC(=O)Oc1ccccc1 [Phenyl acetate, phenyl acetate]",Average sensitivity (control experiments),[2],0.4 nAμM^−1cm^−2
same,Average sensitivity,[3]; Table 1-2 lower part,180 ± 8 nAμM^−1cm^−2
same,Average sensitivity,[3]; Table 1-2 upper part,180 ± 25 nAμM^−1cm^−2
O=P(O)(O)Oc1ccccc1 [Phenyl phosphate],Average sensitivity (control experiments),[2],0.3 nAμM^−1cm^−2
same,Average sensitivity,[4],236 ± 10 nAμM^−1cm^−2
"CCCCC(=O)Oc1ccccc1 [Phenyl valerate, phenyl valerate]",concentration at which response reached saturation,"[5]; 0.1 M phosphate buffer, pH 7.0, −0.1 V vs Ag/AgCl",approximately 30 μM
same,Average sensitivity,[5]; Table 1-2 lower part,88 ± 6 nAμM^−1cm^−2
same,Average sensitivity,[5]; Table 1-2 upper part,87 ± 8 nAμM^−1cm^−2
same,mean current,"[5]; phenyl valerate 4 μM, n=10 electrodes",approximately 348 nA cm^−2
same,limit of detection,[5]; signal-to-noise ratio of three,0.5 µM
same,Average sensitivity (control experiments),[2],0.5 nAμM^−1cm^−2 and 0.3 nAμM^−1cm^−2
same,rise in steady state current on addition of substrate,[2]; electrode with poly-L-lysine and tyrosinase bilayers without NEST,relatively very small rise in steady state current
same,rise in current with substrate,[3]; used as substrate instead of phenyl acetate,no significant rise in current
same,Average sensitivity,[6]; Table 1-2 lower part,70 ± 5 nAμM^−1cm^−2
same,Average sensitivity,[6]; Table 1-2 upper part,25 ± 10 nAμM^−1cm^−2
Oc1ccccc1O [catechol],sensitivity,[7],2.5±0.1 μAμM^−1 cm^−2
same,Km,[8],~220 µM
Oc1ccccc1 [phenol],Average sensitivity,[7],~410±30 nAμM^−1 cm^−2
same,Km,[8],~250 µM
